The data set in a line: Tapped density of bulk powder. Type of data set: physicochemical. Here is the method:
“Tapped densities” or ρtapped as used herein were measured in a fashion similar to Method I, as described in USP <616> Bulk Density and Tapped Density of Powders. Tapped densities represent a closer approximation to particle density than poured bulk densities, with measured values that are approximately 20% less than the actual particle density.
Tapped density was determined using a cylindrical cavity of known volume (0.593 cm^3). Powder was filled into this sample holder using a microspatula. The sample cell was then gently tapped on a countertop. As the sample volume decreased, more powder was added to the cell. The tapping and addition of powder steps were repeated until the cavity was filled and the powder bed no longer consolidated with further tapping. The tapped density is defined as the mass of this tapped bed of powder divided by the volume of the cavity.

Regarding `CC(C)C(=O)OCC(=O)[C@@]12O[C@H](C3CCCCC3)O[C@@H]1C[C@H]1[C@@H]3CCC4=CC(=O)C=C[C@]4(C)[C@H]3[C@@H](O)C[C@@]12C` [Cic-B, ciclesonide], the Tapped density worked out at 0.16 g/mL.

As to `CC(C)C(=O)OCC(=O)[C@@]12O[C@H](C3CCCCC3)O[C@@H]1C[C@H]1[C@@H]3CCC4=CC(=O)C=C[C@]4(C)[C@H]3[C@@H](O)C[C@@]12C` [Cic-A, ciclesonide], the Tapped density was 0.17 g/mL.

(Values after US20220296521A1, “CARRIER-BASED FORMULATIONS AND RELATED METHODS” (Respira Therapeutics, Inc., priority 2019, published 2022).)
